In patent publication US6235707A, “Anticoagulant peptidyl-arginine aldehyde derivatives” (Gyogyszerkutato Intezet Kft., priority 1996, dated 2001):

Key:
[1] = tested on: New Zealand white rabbits; experiment: ex vivo APTT in citrate plasma of rabbits after p.o. dosing; set-up: species or system rabbit; details: p.o. 5 mg/kg
Protocol: The anticoagulant and platelet aggregation inhibiting effect of the compounds of general formula (I) was studied in New Zealand white rabbits ex vivo according to D. Bagdy et al. [Thromb. Haemost. 67, 357 (1992)]. The compounds were dissolved in buffered isotonic saline solution and administered i.v. (0,04-5.0 mg/kg) or by infusion (0.25-5.0 mg/kg/h) or subcutaneously (0.5-6.0 mg/kg) or p.o. (2.5-20 mg/kg). The effect of the compounds was detectable already within 30 minutes following p.o. administration, peak values were attained after 60-180 minutes and the therapeutic level was maintained dose-dependently for 3→6 hours.
The in vivo effect of ethoxycarbonyl-3-cyclobutyl-D-alanyl-L-prolyl-L-arginine aldehyde (1) is presented in detail in Tables 6 and 7. The corresponding values of C1 are listed as controls. The compound was administered p.o. in doses of 5 mg/kg. The blood samples drawn from the caudal vein in every 30-60 minutes were analysed. The whole blood clotting time (WBCT) and the inhibition of thrombin-induced blood platelet aggregation (PAI) were determined. The activated partial thromboplastin time (APTT) and the thrombin time (TT) in the citrate plasma obtained from the blood sample were also measured. The APTT and TT values are compiled in Table 6 and the WBCT and PAI values in Table 7.

[2] = target: plasmin (PL) (Homo sapiens, UniProt P00747); experiment: fibrin-plate method, plasmin; assay type: biochemical
Description: The inhibitory effect of the new compounds of the invention on plasmin (PL) as well as on plasmin formation induced by tissue plasminogen activator (tPA) and urokinase (UK) was examined by the fibrin-plate method [D. Bagdy et al.: Thromb. Haemost. 67, 325 (1992)]. Compounds C1 and C5 served as controls. […] V. Jackson et al.: J. Cardiovasc. Pharmacol. 21, 587 (1993))]. In Table 4 the results obtained with the new compounds 1 and 2 as well as those with controls C1 and C5 are presented as an example.

[3] = target: thrombin (Homo sapiens, UniProt P00734); experiment: thrombin time (TT) plasma clotting test; assay type: biochemical; details: Table 3; twofold prolongation compared to control; read-out: A: anticoagulant IC50, TT
Protocol: Anticoagulant activity (i.e. inhibition of the proteolytic reactions in the process) is measured by anticoagulant tests, e.g. in the thrombin time (TT), activated partial thromboplastin time (APTT) and prothrombin time (PT) tests [E. J. W. Bovie et al., Mayo Clinic Laboratory Manual of Haemostasis; W. B. Saunders Co., Philadelphia (1971)]. Plasma, inhibited in spontaneous coagulation, e.g. citrate-plasma, is made to coagulate and the required coagulation time is measured. Upon the action of anticoagulants the coagulation time is prolonged proportionally to the inhibition of the reaction(s) in the process. The anticoagulant effect can be characterised by the substance concentration required to prolong the coagulation time twofold compared to the control (IC50). The effect of anticoagulants on individual coagulant proteases is measured by the amidolytic method [R. Lottenberg et al., Methods in Enzymol. 80, 341 (1981); G. Cleason, Blood Coagulation and Fibrinolysis 5, 411 (1994)]. The isolated active factor (e.g. thrombin, fXa) and its chromogen or fluorogen peptide-amide substrate are reacted in the presence or absence of the inhibitor, resp. The enzyme inhibiting action is characterised by the inhibitory constant (IC50) measured during amidolysis.
In the TT test coagulation is initiated by the thrombin added to the citrate plasma. In the system 22 pmol/ml of thrombin is functioning and its inhibition can be measured on the fibrinogen (one of the natural substrates of thrombin) in the presence of plasma components. In the APTT and PT tests the full coagulation process takes place. Depending on the activator fX is activated either by the extrinsic or the intrinsic pathway. The generated fXa activates prothrombin to thrombin which, in turn, triggers plasma coagulation. The coagulation time is prolonged if the enzymes or one of them is inhibited by the inhibitor. In the APTT and PT tests at most 40 pmol/ml Xa can be generated (this is the full amount of factor X present in both systems) while 150 pmol/ml (APTT) and 350 pmol/ml (PT) of thrombin are generated [B. Kaiser et al., Thromb. Res. 65, 157 (1992)].
The in vitro anticoagulant effects of the compounds of general formula (I) was measured by the prothrombin time (PT), activated partial thromboplastin time (APTT) and thrombin time (TT) tests [D. Bagdy et al., Thromb. Haemost. 67, 325 (1992)]. The fxa-inhibiting effect of the compounds was also determined using the Bz-Ile-Glu-Gly-Arg-pNA chromogen substrate (see method M6).

Sequence of plasmin (PL) (P00747 581-810 limits assumed, species assumed): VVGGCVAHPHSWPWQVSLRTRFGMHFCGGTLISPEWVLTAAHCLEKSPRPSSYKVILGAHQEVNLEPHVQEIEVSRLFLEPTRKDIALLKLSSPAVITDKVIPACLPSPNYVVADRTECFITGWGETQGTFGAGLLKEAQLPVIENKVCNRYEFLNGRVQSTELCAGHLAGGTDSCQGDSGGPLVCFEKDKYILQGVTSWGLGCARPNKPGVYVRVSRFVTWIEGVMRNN
Sequence of plasmin (PL) (P00747 97-580 partner limits assumed, species assumed): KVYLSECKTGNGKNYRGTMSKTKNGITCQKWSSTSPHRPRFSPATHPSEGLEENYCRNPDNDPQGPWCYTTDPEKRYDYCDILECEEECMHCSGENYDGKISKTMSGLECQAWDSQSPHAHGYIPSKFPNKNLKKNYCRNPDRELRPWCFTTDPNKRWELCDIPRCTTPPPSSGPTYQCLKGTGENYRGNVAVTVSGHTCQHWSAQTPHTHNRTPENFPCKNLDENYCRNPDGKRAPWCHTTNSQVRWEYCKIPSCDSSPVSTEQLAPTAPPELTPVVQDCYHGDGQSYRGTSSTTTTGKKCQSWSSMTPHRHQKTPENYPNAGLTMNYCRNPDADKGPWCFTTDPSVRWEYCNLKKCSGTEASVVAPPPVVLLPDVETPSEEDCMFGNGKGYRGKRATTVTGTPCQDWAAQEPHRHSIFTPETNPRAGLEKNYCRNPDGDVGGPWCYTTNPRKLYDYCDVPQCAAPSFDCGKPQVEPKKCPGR

Compound: CCOC(=O)N[C@H](CC1CCC1)C(=O)N1CCC[C@H]1C(=O)N[C@H](C=O)CCCNC(=N)N [Example 1, Ethoxycarbonyl-3-cyclobutyl-D-alanyl-L-prolyl-L-arginine aldehyde]
- APTT relative clotting time ([1]; 0 min): 1.0
- APTT relative clotting time ([1]; 30 min): 1.73 ± 0.47
- APTT relative clotting time ([1]; 45 min): 1.84 ± 0.50
- APTT relative clotting time ([1]; 60 min): 1.94 ± 0.51
- APTT relative clotting time ([1]; 90 min): 1.92 ± 0.31
- APTT relative clotting time ([1]; 120 min): 1.75 ± 0.26
- APTT relative clotting time ([1]; 180 min): 1.59 ± 0.12
- APTT relative clotting time ([1]; 240 min): 1.38 ± 0.08
- APTT relative clotting time ([1]; 300 min): 1.28 ± 0.08
- IC50 ([2]; fibrin plate, hydrolysed area reduced to 50% of control): 39 µM
- B: relative efficiency, PL ([2]; related to the activity of C1 (1/IC50 = 1)): 1.4
- activity against PL, times lower than that of compound C5 ([2]; text b147, first of three enzymes): 3.2 times
- IC50 [3]: 0.11 µM
